Assay results: patent publication US7148227B2, “Fungicidal triazolopyrimidines, methods for producing the same, use thereof for combating harmful fungi and agents containing said substances” (BASF Aktiengesellschaft, priority 2002, dated 2006)

## CSc1cc(F)c(-c2c(Cl)nc3ncnn3c2NCC(F)(F)F)cc1F [I-8]
  melting point: 161 °C

## N#Cc1ccc(-c2c(Cl)nc3ncnn3c2NC2CCCC2)cc1 [I-3]
  melting point: 207 °C
